Data published in patent publication US6864251B2, “Treatment of LTB4-mediated inflammatory disorders with optically-pure (R)-2,3-benzodiazepines” (Vela Pharmaceuticals, Inc., priority 2002, dated 2005).
“And” between values parts separate entries of the source, which are not always exact repeats. Equal entries are not always repeated.

Key:
[1] = molecular target: LTB4 receptor (Cavia porcellus, UniProt H0VYV8); experiment: LTB4 binding assay, displacement of [3H]LTB4, guinea pig spleen membrane
Sequence of LTB4 receptor (H0VYV8 1-348): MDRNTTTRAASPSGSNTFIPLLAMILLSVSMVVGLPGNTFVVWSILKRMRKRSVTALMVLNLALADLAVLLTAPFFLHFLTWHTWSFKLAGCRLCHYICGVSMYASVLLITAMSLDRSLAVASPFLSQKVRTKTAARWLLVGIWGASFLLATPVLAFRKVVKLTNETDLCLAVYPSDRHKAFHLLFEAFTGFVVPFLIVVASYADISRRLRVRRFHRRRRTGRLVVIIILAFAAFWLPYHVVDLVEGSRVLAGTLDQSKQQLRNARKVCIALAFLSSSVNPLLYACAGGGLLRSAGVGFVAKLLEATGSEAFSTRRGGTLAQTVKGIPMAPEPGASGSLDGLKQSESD
Procedure: Reactions were carried out in a phosphate buffer (pH 7.4) containing NaCl, MgCl2, EDTA, and bacitracin. The reaction volume of 150 μL containing 1.0 mg/mL of the Guinea pig spleen membrane preparation and 1 nM [^3H]LTB4, with or without a competitor, was incubated at 0-4° C. for 2 hours. Competitors included 2,3-benzodiazepines, and LTB4 as a control. The reaction was terminated by rapid vacuum filtration onto glass fiber filters. The filter was washed with cold buffer, dried and placed in a scintillation vial. Radioactivity trapped onto the filters was determined and compared to control values in order to ascertain any interactions of the test compound with the LTB4 binding site.

[2] = test system: LTB4-induced dermal inflammation; experiment: Rabbit model of LTB4-induced dermal inflammation, histopathology of intradermal challenge sites; assay type: in vivo, New Zealand White Rabbits; set-up: key to Inflammation score / Edema score: 0=normal; T=trace; 1=minimal; 2=mild; 3=moderate; 4=marked; conditions: test article IP 60 mg/kg (dexamethasone 0.5 mg/kg); for Edema score / Inflammation score: 4 hr after challenge; for Histopathology finding: reduction of inflammation and edema: summary in words
Procedure: Test compounds were prepared as follows. The vehicle was first prepared by dissolving […] of hydroxypropylmethylcellulose 2910 (HPMC)(Sigma Chemical, St. Louis, Mo.) in 50 mL of 0.9% saline to yield a concentration of 2% HPMC. The three test articles, (R)-, (S)- and racemic tofisopam, were formulated by adding 1 g of each test article to 10 mL of vehicle.
On Day 0, the rabbits were sedated with ketamine/xylazine (35/5 mg/kg, s.c.) and an area of approximately 8×14 cm on the back was closely and carefully clipped to expose the skin, but not inflame or otherwise damage the epithelium. A grid of ten squares each approximately 2.5×2.5 cm was drawn on each animal's back using an indelible marker. The animals were then dosed intraperitoneally with the appropriate test article corresponding to the group. Thirty minutes after dosing with test or control article, the animals were challenged intradermally with the LTB4 or LTB4-aminopropamide (LTB4-AP, a synthetic LTB4 agonist) in the appropriate site as shown in Table 4. Each injection site was marked with an indelible marker in order to identify the exact location of the intradermal injection site. Sixty minutes after challenge, the animals were treated again with tofisopam or control articles. The animals were sacrificed 4 hrs. after challenge, and the intradermal injection sites were excised, fixed in 10% neutral buffered formalin (NBF), and submitted for histopathology. H&E-stained sections were read by a board-certified veterinary pathologist using light microscopy.
All animals were sacrificed 4 hr after challenge. The intradermal challenge sites were excised, placed on unique cardboard squares, fixed in 10% NBF, and submitted for histopathology. The skin sections included the epidermis and the subcutis, down to the back musculature.
The marked skin sections were fixed for at least 48 hours on small cardboard squares. At gross trimming, three levels were cut through marked skin region in order to assure that the injection sites is brought into the plane of section. The skins were gross trimmed, processed by dehydration, embedded in paraffin, sectioned at 3-5 μm, and stained with hematoxylin and eosin.
The tissues were evaluated histopathologically via light microscopy by a board-certified veterinary pathologist. Initially, the identity of the slides was masked in order to perform the initial evaluation and rank the slides. The slides were then unmasked and there was a careful assessment of the lesions and careful comparison of the tofisopam-treated sites to the vehicle and positive control tissues. The lesions were graded based upon the degree of inflammation and the degree of edema. The severity of the inflammation and edema was keyed as follows: 0=normal; T=trace; 1=minimal; 2=mild; 3=moderate; 4=marked.

[3] = injection site: LTB4 2000 ng, listed as (R,S)-tofisopam
[4] = injection site: LTB-ap 2000 ng, listed as (R,S)-tofisopam

| Ki [1] | SMILES | Edema score ([2]; injection site: LTB4 500 ng) | Inflammation score ([2]; injection site: LTB4 500 ng) | Edema score ([2]; injection site: LTB4 1000 ng) | Edema score ([2]; injection site: LTB4 2000 ng) | Edema score ([2]; injection site: LTB-ap 500 ng) | Edema score ([2]; injection site: LTB-ap 1000 ng) | Edema score ([2]; injection site: LTB-ap 2000 ng) | Edema score ([2]; injection site: Vehicle 0 ng) | Inflammation score ([2]; injection site: Vehicle 0 ng) | Histopathology finding: reduction of inflammation and edema [2] | Inflammation score ([2]; injection site: LTB-ap 500 ng) | Inflammation score ([2]; injection site: LTB-ap 1000 ng) | other results |
| --- | --- | --- | --- | --- | --- | --- | --- | --- | --- | --- | --- | --- | --- | --- |
| 76 µM | CC[C@@H]1C(C)=NN=C(c2ccc(OC)c(OC)c2)c2cc(OC)c(OC)cc21 [(S)-tofisopam, (S)-1-(3,4-dimethoxyphenyl)-4-methyl-5-ethyl-7,8-dimethoxy-5H-2,3-benzodiazepine] | 2 | 1 and 2 | 3 and 4 | 2 and 4 | 2 and 3 | 3 and 4 | 2 and 1 and 4 | T and 1 | T and 1 | no meaningful reduction in the inflammation and edema |  |  |  |
| 0.444 µM | CC[C@H]1C(C)=NN=C(c2ccc(OC)c(OC)c2)c2cc(OC)c(OC)cc21 [(R)-tofisopam, (R)-1-(3,4-dimethoxyphenyl)-4-methyl-5-ethyl-7,8-dimethoxy-5H-2,3-benzodiazepine] | 1 and 3 | 1 | 2 and 3 | 2 and 3 | 1 and 3 | 2 and 3 | 2 and 3 and 1 | 0 and 1 and 2 | 0 and 1 | meaningful reduction in the severity of the inflammatory cell infiltration and less edema | 1 | 1 and 2 | Inflammation score ([2]; injection site: LTB4 1000 ng): 1 and 2; Inflammation score ([2]; injection site: LTB4 2000 ng): 1-2 and 1; Inflammation score ([2]; injection site: LTB-ap 2000 ng): 1 and 2 |

| SMILES | Ki [1] | Edema score ([2]; injection site: LTB4 500 ng) | Inflammation score ([2]; injection site: LTB4 500 ng) | Edema score ([2]; injection site: LTB4 1000 ng) | Edema score ([2]; injection site: LTB4 2000 ng) | Edema score ([2]; injection site: LTB-ap 500 ng) | Edema score ([2]; injection site: LTB-ap 1000 ng) | Edema score ([2]; injection site: LTB-ap 2000 ng) | Edema score ([2]; injection site: Vehicle 0 ng) | Inflammation score ([2]; injection site: Vehicle 0 ng) | Histopathology finding: reduction of inflammation and edema [2] | Inflammation score ([2]; injection site: LTB-ap 500 ng) | Inflammation score ([2]; injection site: LTB-ap 1000 ng) | other results |
| --- | --- | --- | --- | --- | --- | --- | --- | --- | --- | --- | --- | --- | --- | --- |
| CCC1C(C)=NN=C(c2ccc(OC)c(OC)c2)c2cc(OC)c(OC)cc21 (racemic) [Racemic tofisopam, Racemic-1-(3,4-dimethoxyphenyl)-4-methyl-5-ethyl-7,8-dimethoxy-5H-2,3-benzodiazepine] | 4.52 µM |  | 2 | 3 |  |  | 3 |  |  | 1 | no meaningful reduction in the inflammation and edema | 2 | 3 | Edema score ([2]; injection site: LTB4 500 ng, listed as (R,S)-tofisopam): 2 and 3; Inflammation score ([2]; injection site: LTB4 1000 ng, listed as (R,S)-tofisopam): 3 and 2; Edema score [2, 3]: 2 and 1 and 3; Inflammation score [2, 3]: 2 and 1 and 3; Edema score ([2]; injection site: LTB-ap 500 ng, listed as (R,S)-tofisopam): 2 and 3; Edema score [2, 4]: 2 and 1 and 3; Inflammation score [2, 4]: 2 and 1; Edema score ([2]; injection site: Vehicle 0 ng, listed as (R,S)-tofisopam): 2 and 1 |
